In patent US20260355212A1 (priority 2022, published 2026):
pIC50: −log10 of the molar value. Read-outs that look alike come from different tables or passages of the source.

Experiments:
[1] = target: HCoV-NL63 Mpro (Human coronavirus NL63, UniProt P0C6X5); assay: HCoV-NL63 Mpro enzymatic inhibition assay (fluorescence); format: biochemical
Method in brief: (§1)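 Protease activity is measured by cleavage of a synthetic fluorogenic substrate, read at 340/490 nm following 60 min at 30 °C. Enzyme and compound are pre-incubated 30 min beforehand.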

[2] = target: HCoV-OC43 Mpro (Human coronavirus OC43, UniProt P0C6X6); assay: HCoV-OC43 Mpro enzymatic inhibition assay (fluorescence); format: biochemical
Method in brief: as §1

[3] = target: SARS-CoV-2 Mpro (Severe acute respiratory syndrome coronavirus 2, UniProt P0DTD1); assay: SARS-CoV-2 Mpro enzymatic inhibition assay (fluorescence); format: biochemical
Method in brief: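 Recombinant Mpro expressed in E. coli was preincubated 30 min at room temperature with 10-point, 3-fold serially diluted compound in duplicate. Fluorogenic substrate was then added and incubated 60 min at 30° C, and fluorescence read at Ex/Em 340/490 nm. IC50 came from a four-parameter fit of % inhibition.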

[4] = target: HCoV-229E Mpro (Human coronavirus 229E, UniProt P0C6X1); assay: HCoV-229E Mpro enzymatic inhibition assay (fluorescence); format: biochemical
[5] = target: SARS-CoV-1 Mpro (Severe acute respiratory syndrome coronavirus, UniProt P0C6X7); assay: biochemical
[6] = target: HCoV-HKU1 Mpro (Human coronavirus HKU1, UniProt P0C6X2); assay: HCoV-HKU1 Mpro enzymatic inhibition assay (fluorescence); format: biochemical
Method in brief: as §1

[7] = target: MERS Mpro (Middle East respiratory syndrome-related coronavirus, UniProt K9N7C7); assay: biochemical; parameters: species or system MERS-CoV
[8] = mean, 25 nM protein, 25 μM substrate, 30 min pre-incubation, 60 min at 30° C., read-out: Mpro_SARS-CoV-2 mean IC50

HCoV-NL63 Mpro, sequence (P0C6X5 2940-3242 limits assumed): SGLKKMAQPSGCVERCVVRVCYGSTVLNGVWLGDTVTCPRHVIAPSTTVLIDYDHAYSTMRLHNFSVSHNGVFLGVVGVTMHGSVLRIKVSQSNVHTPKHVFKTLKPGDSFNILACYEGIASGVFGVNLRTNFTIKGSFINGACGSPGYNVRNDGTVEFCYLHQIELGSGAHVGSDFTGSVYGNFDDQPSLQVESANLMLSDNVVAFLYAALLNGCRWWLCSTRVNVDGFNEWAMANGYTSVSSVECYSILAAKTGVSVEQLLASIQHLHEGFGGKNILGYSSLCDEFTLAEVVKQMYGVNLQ
HCoV-OC43 Mpro, sequence (P0C6X6 3247-3549 limits assumed): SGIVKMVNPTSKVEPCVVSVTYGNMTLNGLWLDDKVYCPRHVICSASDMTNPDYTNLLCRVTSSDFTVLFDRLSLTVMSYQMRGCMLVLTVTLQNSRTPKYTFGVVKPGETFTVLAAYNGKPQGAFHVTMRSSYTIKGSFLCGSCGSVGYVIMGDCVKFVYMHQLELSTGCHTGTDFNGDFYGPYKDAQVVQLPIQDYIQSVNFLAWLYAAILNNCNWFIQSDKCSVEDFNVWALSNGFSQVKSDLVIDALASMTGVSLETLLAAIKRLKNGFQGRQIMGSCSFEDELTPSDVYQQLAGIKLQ
MERS Mpro, sequence (K9N7C7 3248-3553 limits assumed): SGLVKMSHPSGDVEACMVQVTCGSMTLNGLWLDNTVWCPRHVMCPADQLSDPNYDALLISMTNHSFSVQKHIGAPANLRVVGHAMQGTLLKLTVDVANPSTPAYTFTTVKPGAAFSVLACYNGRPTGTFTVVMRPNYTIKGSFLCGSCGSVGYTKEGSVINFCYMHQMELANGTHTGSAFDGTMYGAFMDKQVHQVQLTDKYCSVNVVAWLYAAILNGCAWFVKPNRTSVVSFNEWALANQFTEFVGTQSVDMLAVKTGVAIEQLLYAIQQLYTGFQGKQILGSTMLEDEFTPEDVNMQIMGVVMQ
HCoV-229E Mpro, sequence (P0C6X1 2966-3267 limits assumed): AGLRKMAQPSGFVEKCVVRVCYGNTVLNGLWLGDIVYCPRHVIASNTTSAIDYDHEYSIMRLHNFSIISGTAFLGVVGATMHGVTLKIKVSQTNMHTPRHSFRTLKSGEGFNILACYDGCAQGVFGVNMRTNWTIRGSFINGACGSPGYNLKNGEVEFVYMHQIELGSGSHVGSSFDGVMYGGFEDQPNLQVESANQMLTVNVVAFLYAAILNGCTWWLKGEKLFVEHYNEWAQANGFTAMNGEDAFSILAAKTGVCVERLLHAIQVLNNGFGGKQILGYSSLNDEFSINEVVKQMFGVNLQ
HCoV-HKU1 Mpro, sequence (P0C6X2 3335-3637 limits assumed): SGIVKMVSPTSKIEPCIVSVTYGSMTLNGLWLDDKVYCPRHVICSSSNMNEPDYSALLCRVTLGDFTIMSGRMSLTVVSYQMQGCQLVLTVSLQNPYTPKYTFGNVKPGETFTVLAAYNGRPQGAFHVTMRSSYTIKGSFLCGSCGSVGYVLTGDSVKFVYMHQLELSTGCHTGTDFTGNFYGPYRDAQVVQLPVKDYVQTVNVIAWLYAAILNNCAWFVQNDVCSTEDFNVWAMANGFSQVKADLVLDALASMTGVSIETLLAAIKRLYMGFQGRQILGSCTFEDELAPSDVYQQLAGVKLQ

COc1ccc(Cl)c2[nH]c(C(=O)N3C[C@H]4[C@@H]([C@H]3C(=O)N[C@H](C=O)C[C@@H]3CCNC3=O)C4(C)C)cc12 [Compound 28, (1R,2S,5S)-3-(7-chloro-4-methoxy-1H-indole-2-carbonyl)-6,6-dimethyl-N—((S)-1-oxo-3-((S)-2-oxopyrrolidin-3-yl)propan-2-yl)-3-azabicyclo[3.1.0]hexane-2-carboxamide]
pIC50 [1]: 7.29
pIC50 [2]: 7.36
pIC50 [3]: 7.74
pIC50 [4]: 7.45
pIC50 [5]: 7.57
pIC50 [6]: 7.70
pIC50 [7]: 6.65

CC1(C)[C@@H]2[C@@H](C(=O)N[C@H](C=O)C[C@@H]3CCNC3=O)N(C(=O)c3cc4c(Cl)cccc4[nH]3)C[C@@H]21 [Compound 43, (1R,2S,5S)-3-(4-Chloro-1H-indole-2-carbonyl)-6,6-dimethyl-N—((S)-1-oxo-3-((S)-2-oxopyrrolidin-3-yl)propan-2-yl)-3-azabicyclo[3.1.0]hexane-2-carboxamide]
pIC50 [1]: 7.32
pIC50 [2]: 7.34
pIC50 [3]: 7.66
pIC50 [4]: 7.41
pIC50 [5]: 7.59
pIC50 [6]: 7.74
pIC50 [7]: 6.63

C=C1C[C@@H](C(=O)N[C@H](C=O)C[C@@H]2CCNC2=O)N(C(=O)c2cc3ccccc3[nH]2)C1 [Compound 108, (S)-1-(1H-Indole-2-carbonyl)-4-methylene-N—((S)-1-oxo-3-((S)-2-oxopyrrolidin-3-yl)propan-2-yl)pyrrolidine-2-carboxamide]
pIC50 [1]: 7.42
pIC50 [2]: 6.71
pIC50 [3]: 7.11
pIC50 [4]: 7.32
pIC50 [5]: 6.80
pIC50 [6]: 7.54
pIC50 [7]: 6.54

CC1(C)C[C@@H](C(=O)N[C@H](C=O)C[C@@H]2CCNC2=O)N(C(=O)c2cc3cccc(F)c3[nH]2)C1 [Compound 62, (S)-1-(7-Fluoro-1H-indole-2-carbonyl)-4,4-dimethyl-N—((S)-1-oxo-3-((S)-2-oxopyrrolidin-3-yl)propan-2-yl)pyrrolidine-2-carboxamide]
pIC50 [1]: 7.04
pIC50 [2]: 6.84
pIC50 [3]: 7.58
pIC50 [4]: 7.19
pIC50 [5]: 7.11
pIC50 [6]: 7.25
pIC50 [7]: 6.27

C[C@H](C(=O)N1C[C@H]2[C@@H]([C@H]1C(=O)N[C@H](C=O)C[C@@H]1CCNC1=O)C2(C)C)c1ccccc1 [Compound 104, (1R,2S,5S)-6,6-Dimethyl-N—((S)-1-oxo-3-((S)-2-oxopyrrolidin-3-yl)propan-2-yl)-3-((S)-2-phenylpropanoyl)-3-azabicyclo[3.1.0]hexane-2-carboxamide]
pIC50 [1]: 6.06
pIC50 [2]: 6.71
pIC50 [3, 8]: 7.19
pIC50 [4]: 6.93
pIC50 [5]: 6.94
pIC50 [6]: 6.96
pIC50 [7]: 6.16

CC1(C)[C@@H]2[C@@H](C(=O)N[C@H](C=O)C[C@@H]3CCCNC3=O)N(C(=O)c3cc4cccc(Cl)c4[nH]3)C[C@@H]21 [Compound 25, (1R,2S,5S)-3-(7-chloro-1H-indole-2-carbonyl)-6,6-dimethyl-N—((S)-1-oxo-3-((S)-2-oxopiperidin-3-yl)propan-2-yl)-3-azabicyclo[3.1.0]hexane-2-carboxamide]
pIC50 [1]: 7.27
pIC50 [2]: 7.37
pIC50 [3]: 7.78
pIC50 [4]: 7.47
pIC50 [5]: 7.62
pIC50 [6]: 7.52
pIC50 [7]: 6.85

CC1(C)[C@@H]2[C@@H](C(=O)N[C@H](C=O)C[C@@H]3CCNC3=O)N(C(=O)c3cc4c(Cl)cc(Cl)cc4[nH]3)C[C@@H]21 [Compound 97, (1R,2S,5S)-3-(4,6-Dichloro-1H-indole-2-carbonyl)-6,6-dimethyl-N—((S)-1-oxo-3-((S)-2-oxopyrrolidin-3-yl)propan-2-yl)-3-azabicyclo[3.1.0]hexane-2-carboxamide]
pIC50 [1]: 7.05
pIC50 [2]: 7.14
pIC50 [3]: 7.30
pIC50 [4]: 7.34
pIC50 [5]: 7.12
pIC50 [6]: 7.57
pIC50 [7]: 6.40

CC1(C)[C@@H]2[C@@H](C(=O)N[C@H](C=O)C[C@@H]3CCNC3=O)N(C(=O)c3cc4c(F)cc(F)cc4[nH]3)C[C@@H]21 [Compound 20, (1R,2S,5S)-3-(4,6-difluoro-1H-indole-2-carbonyl)-6,6-dimethyl-N—((S)-1-oxo-3-((S)-2-oxopyrrolidin-3-yl)propan-2-yl)-3-azabicyclo[3.1.0]hexane-2-carboxamide]
pIC50 [1]: 7.43
pIC50 [2]: 7.26
pIC50 [3]: 7.81
pIC50 [4]: 7.40
pIC50 [5]: 7.39
pIC50 [6]: 7.78
pIC50 [7]: 6.56

CC1(C)[C@@H]2[C@@H](C(=O)N[C@H](C=O)C[C@@H]3CCCNC3=O)N(C(=O)CC3CCCCC3)C[C@@H]21 [Compound 79, (1R,2S,5S)-3-(2-Cyclohexylacetyl)-6,6-dimethyl-N—((S)-1-oxo-3-((S)-2-oxopiperidin-3-yl)propan-2-yl)-3-azabicyclo[3.1.0]hexane-2-carboxamide]
pIC50 [1]: 7.24
pIC50 [2]: 7.41
pIC50 [3]: 7.46
pIC50 [4]: 7.29
pIC50 [5]: 7.59
pIC50 [6]: 7.57
pIC50 [7]: 6.75

O=C[C@H](C[C@@H]1CCNC1=O)NC(=O)[C@@H]1CCCN1C(=O)c1cc2ccccc2[nH]1 [Compound 138]
pIC50 [1]: 6.38
pIC50 [2]: 6.50
pIC50 [3, 8]: 6.30
pIC50 [4]: 6.68
pIC50 [5]: 6.16
pIC50 [6]: 6.64
pIC50 [7]: 5.76

Cc1cccc([C@@H](C)C(=O)N2C[C@H]3[C@@H]([C@H]2C(=O)N[C@H](C=O)C[C@@H]2CCNC2=O)C3(C)C)c1 [Compound 7, (1R,2S,5S)-6,6-dimethyl-N—((S)-1-oxo-3-((S)-2-oxopyrrolidin-3-yl)propan-2-yl)-3-((R)-2-(m-tolyl)propanoyl)-3-azabicyclo[3.1.0]hexane-2-carboxamide]
pIC50 [1]: 7.47
pIC50 [2]: 7.58
pIC50 [3, 8]: 7.96
pIC50 [4]: 7.66
pIC50 [5]: 7.89
pIC50 [6]: 8.04
pIC50 [7]: 7.09

CC1(C)[C@@H]2[C@@H](C(=O)N[C@H](C=O)C[C@@H]3CCNC3=O)N(C(=O)Cc3ccccc3)C[C@@H]21 [Compound 23, (1R,2S,5S)-6,6-dimethyl-N—((S)-1-oxo-3-((S)-2-oxopyrrolidin-3-yl)propan-2-yl)-3-(2-phenylacetyl)-3-azabicyclo[3.1.0]hexane-2-carboxamide]
pIC50 [1]: 7.30
pIC50 [2]: 7.52
pIC50 [3, 8]: 7.80
pIC50 [4]: 7.47
pIC50 [5]: 7.63
pIC50 [6]: 7.65
pIC50 [7]: 6.90

N#Cc1cccc2cc(C(=O)N3C[C@H](C4CCCCC4)C[C@H]3C(=O)N[C@H](C=O)C[C@@H]3CCNC3=O)[nH]c12 [Compound 75, (2S,4S)-1-(7-cyano-1H-indole-2-carbonyl)-4-cyclohexyl-N—((S)-1-oxo-3-((S)-2-oxopyrrolidin-3-yl)propan-2-yl)pyrrolidine-2-carboxamide]
pIC50 [1]: 6.12
pIC50 [2]: 7.24
pIC50 [3]: 7.49
pIC50 [4]: 7.19
pIC50 [5]: 7.18
pIC50 [6]: 7.78
pIC50 [7]: 6.22
